Assay results from ChEMBL document CHEMBL1201862, “PubChem BioAssay data set” (2004).
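Five concentrations, 48 hours, 96-well plates. GI50 is the concentration that inhibits growth by half.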 Calls of active or inactive are those of the source. No stated cut-off is given here; in the data, active = GI50 up to about 1.1 µM and inactive = higher.

Key:
Assay in all cases: NCI anticancer screen, dose series, 48 h
M14 = tested on: M14
OVCAR-3 = tested on: OVCAR-3
SF-295 = tested on: SF-295
SK-OV-3 = tested on: SK-OV-3
SF-268 = tested on: SF-268
DU-145 = tested on: DU-145
Malme-3M = tested on: Malme-3M
NCI-H23 = tested on: NCI-H23
MDA-N = tested on: MDA-N
CCRF-CEM = tested on: CCRF-CEM
LOX IMVI = tested on: LOX IMVI
MCF7 = tested on: MCF7
HCT-15 = tested on: HCT-15
NCI-H226 = tested on: NCI-H226
CAKI-1 = tested on: CAKI-1
T47D = tested on: T47D
UACC-62 = tested on: UACC-62
HCC 2998 = tested on: HCC 2998
SR = tested on: SR

| Structure (SMILES) | GI50 (M14) | GI50 (OVCAR-3) | GI50 (SF-295) | GI50 (SK-OV-3) | GI50 (SF-268) | GI50 (DU-145) | GI50 (Malme-3M) | GI50 (NCI-H23) | GI50 (MDA-N) | GI50 (CCRF-CEM) | GI50 (LOX IMVI) | GI50 (MCF7) | GI50 (HCT-15) | GI50 (NCI-H226) | GI50 (CAKI-1) | GI50 (T47D) | GI50 (UACC-62) | GI50 (HCC 2998) | GI50 (SR) |
| --- | --- | --- | --- | --- | --- | --- | --- | --- | --- | --- | --- | --- | --- | --- | --- | --- | --- | --- | --- |
| CC(C)CC(N)C(=O)O (centres undefined) | > 100 µM (inactive) | > 100 µM (inactive) | > 100 µM (inactive) | > 100 µM (inactive) | > 100 µM (inactive) | > 100 µM (inactive) | > 100 µM (inactive) | > 100 µM (inactive) | > 100 µM (inactive) | > 100 µM (inactive) | > 100 µM (inactive) | > 100 µM (inactive) | > 100 µM | > 100 µM (inactive) | > 100 µM (inactive) | > 100 µM (inactive) | > 100 µM (inactive) |  |  |
| COC(=O)C(CCSc1ccccc1)C(=O)OC | > 100 µM (inactive) | > 100 µM (inactive) | > 100 µM (inactive) | > 100 µM (inactive) |  |  | 10.8 µM (inactive) | > 100 µM (inactive) | > 100 µM (inactive) | > 100 µM (inactive) |  | > 100 µM (inactive) | > 100 µM | > 100 µM (inactive) | > 100 µM (inactive) | > 100 µM (inactive) | > 100 µM (inactive) | > 100 µM (inactive) | > 100 µM (inactive) |
| CCOP(=O)(OCC)C(Nc1ccc(F)cc1)c1cccc([N+](=O)[O-])c1 (centres undefined) | 79.1 µM (inactive) | > 100 µM (inactive) | > 100 µM (inactive) | > 100 µM (inactive) | > 100 µM (inactive) | > 100 µM (inactive) | 83.8 µM (inactive) | > 100 µM (inactive) | > 100 µM (inactive) | 62.4 µM (inactive) | > 100 µM (inactive) | > 100 µM (inactive) | 83.8 µM | > 100 µM (inactive) | > 100 µM (inactive) |  | 54.8 µM (inactive) | 71.6 µM (inactive) | 93.5 µM (inactive) |
| COc1ccccc1Cn1[nH]c(=O)c2cc([N+](=O)[O-])ccc21 | > 100 µM (inactive) | 27.9 µM (inactive) |  |  | 48.5 µM (inactive) | > 100 µM (inactive) | > 100 µM (inactive) | > 100 µM (inactive) | 47.8 µM (inactive) | > 100 µM (inactive) | > 100 µM (inactive) |  | > 100 µM | > 100 µM (inactive) | > 100 µM (inactive) |  | 76 µM (inactive) | 65.9 µM (inactive) | > 100 µM (inactive) |
| Cc1n[nH]c(=O)n1/N=C/c1ccc(Cl)cc1 | > 100 µM (inactive) | 27.9 µM (inactive) | 46 µM (inactive) | 83.4 µM (inactive) | 44.9 µM (inactive) | 47.2 µM (inactive) |  | 27.9 µM (inactive) | > 100 µM (inactive) | 31.1 µM (inactive) |  |  | > 100 µM |  | 52.2 µM (inactive) | 35.6 µM (inactive) | 56.9 µM (inactive) | > 100 µM (inactive) | 34.4 µM (inactive) |
| CNC(=O)CCC(NC(C)=O)C(=O)NC(Cc1ccc(NC(=O)CCCCC(C)=O)cc1)C(=O)NC(CCC(=O)NC)C(=O)NC (centres undefined) | > 100 µM (inactive) | > 100 µM (inactive) | > 100 µM (inactive) | > 100 µM (inactive) | > 100 µM (inactive) | > 100 µM (inactive) | > 100 µM (inactive) | > 100 µM (inactive) | > 100 µM (inactive) |  | > 100 µM (inactive) | > 100 µM (inactive) | > 100 µM | > 100 µM (inactive) | > 100 µM (inactive) | > 100 µM (inactive) | > 100 µM (inactive) | > 100 µM (inactive) |  |
| c1ccc2c(c1)ccc1nc(-c3ccc4c(c3)OCO4)c3c(c12)CCCC3 | 28.7 µM (inactive) | 15.4 µM (inactive) | 12.2 µM (inactive) | 43.5 µM (inactive) | 12.2 µM (inactive) |  | 20.8 µM (inactive) | 13.8 µM (inactive) | 37.9 µM (inactive) | 25.9 µM (inactive) |  | 24.5 µM (inactive) | 6.07 µM | 73.1 µM (inactive) | 45.4 µM (inactive) | 11.3 µM (inactive) | 18.8 µM (inactive) | 31.7 µM (inactive) |  |
| C[C@@H](CCO)OC1OC(COC(=O)C(C)(C)C)C(OC(=O)C(C)(C)C)C(OC(=O)C(C)(C)C)C1OC(=O)C(C)(C)C (some centres undefined) | 56.5 µM (inactive) | 86.7 µM (inactive) | 4.13 µM (inactive) | 58.7 µM (inactive) | 50.6 µM (inactive) | > 100 µM (inactive) |  | > 100 µM (inactive) |  | 33.7 µM (inactive) | 51.4 µM (inactive) | 15.1 µM (inactive) | 32.4 µM | 20.9 µM (inactive) | 5.97 µM (inactive) | > 100 µM (inactive) | 48 µM (inactive) | 16.6 µM (inactive) | 84.7 µM (inactive) |
| Fc1ccc(C2NC(=S)NC3=C2CCOc2c3ccc3ccccc23)cc1 (centres undefined) | 27.7 µM (inactive) | 44.1 µM (inactive) | 34.4 µM (inactive) | 82.4 µM (inactive) | 45.1 µM (inactive) | > 100 µM (inactive) | 17.4 µM (inactive) | 24.4 µM (inactive) |  | 54 µM (inactive) |  | 15.7 µM (inactive) | 18.7 µM |  | 16.6 µM (inactive) | 2.7 µM (inactive) |  | 22.6 µM (inactive) |  |
| CS(=O)(=O)Nc1ccc2c(c1)N(S(C)(=O)=O)CC2CCl (centres undefined) |  | > 100 µM (inactive) | > 100 µM (inactive) |  | > 100 µM (inactive) | > 100 µM (inactive) | > 100 µM (inactive) | > 100 µM (inactive) |  | > 100 µM (inactive) | > 100 µM (inactive) | > 100 µM (inactive) | > 100 µM | > 100 µM (inactive) | > 100 µM (inactive) | > 100 µM (inactive) | > 100 µM (inactive) | > 100 µM (inactive) | > 100 µM (inactive) |
| CN(C)CC/C=C1\c2ccccc2Sc2ccc(Cl)cc21 | 3.01 µM (inactive) | 13.4 µM (inactive) | 15.9 µM (inactive) | 16.3 µM (inactive) | 14.1 µM (inactive) | 15.4 µM (inactive) | 12.8 µM (inactive) | 15.6 µM (inactive) | 12.7 µM (inactive) | 8.2 µM (inactive) | 13.8 µM (inactive) | 15.1 µM (inactive) | 15.4 µM | 18.6 µM (inactive) | 8.11 µM (inactive) | 16.3 µM (inactive) | 13.6 µM (inactive) | 2.22 µM (inactive) |  |
| O=C(O)c1nc2ccc(C(F)(F)F)cc2nc1Nc1ccc(Cl)c(Cl)c1 |  | 6.37 µM (inactive) | 4.36 µM (inactive) |  | 4.46 µM (inactive) | 9.68 µM (inactive) | 13.3 µM (inactive) | 4.17 µM (inactive) | 6.73 µM (inactive) |  | 9.82 µM (inactive) | 14.3 µM (inactive) | 8.97 µM | 10.6 µM (inactive) | 15.5 µM (inactive) |  | 2.3 µM (inactive) | 4.99 µM (inactive) | 4.15 µM (inactive) |
| C(=N\N=C1NCCCCN1)/c1ccc2ccccc2c1 | 14.5 µM (inactive) | 46.8 µM (inactive) | 21.3 µM (inactive) | 27.2 µM (inactive) | 45.3 µM (inactive) | 67.3 µM (inactive) | 16.3 µM (inactive) | 76.7 µM (inactive) |  | 33.7 µM (inactive) | 15.7 µM (inactive) | 29.4 µM (inactive) | 28.1 µM | 24.7 µM (inactive) |  | 18.4 µM (inactive) | 31 µM (inactive) | 15.3 µM (inactive) |  |
| CCOC(=O)Nn1c(C)nnc1CC#N | > 100 µM (inactive) | > 100 µM (inactive) | > 100 µM (inactive) |  | > 100 µM (inactive) | > 100 µM (inactive) | > 100 µM (inactive) | > 100 µM (inactive) |  |  | > 100 µM (inactive) | > 100 µM (inactive) | > 100 µM | > 100 µM (inactive) | > 100 µM (inactive) | > 100 µM (inactive) | > 100 µM (inactive) | > 100 µM (inactive) | > 100 µM (inactive) |
| Cc1cccc2[nH]c3c(c(O)cc4[nH]c5cccc(C)c5c(=O)c43)c(=O)c12 | 4.47 µM (inactive) | 6 µM (inactive) | 7.53 µM (inactive) | > 10 µM (inactive) | > 10 µM (inactive) | 5.98 µM (inactive) | 6.95 µM (inactive) | 3 µM (inactive) | > 10 µM (inactive) | > 10 µM (inactive) | 3.65 µM (inactive) | > 10 µM (inactive) | > 10 µM | 5.16 µM (inactive) | > 10 µM (inactive) | 8.83 µM (inactive) | > 10 µM (inactive) | > 10 µM (inactive) |  |
| COc1ccc(/C=C2\CCC(C)C3=C(c4ccc(OC)c(OC)c4)C(C#N)=C(N)OC32)cc1OC (centres undefined) | 3.17 µM (inactive) | 3.58 µM (inactive) | 3.43 µM (inactive) | 3.42 µM (inactive) | 9.77 µM (inactive) | 5.5 µM (inactive) | 2.48 µM (inactive) | 2.7 µM (inactive) | 3.45 µM (inactive) | 2.28 µM (inactive) | 3.16 µM (inactive) | 3.26 µM (inactive) | 3.33 µM | 2.39 µM (inactive) | 4.36 µM (inactive) | 2.17 µM (inactive) | 2.86 µM (inactive) |  |  |
| COc1ccc2c3c([nH]c2c1)[C@H](C=C(C)C)N1C(=O)[C@@H]2CCCN2C(=O)[C@@H]1C3 [FUMITREMORGIN] | > 100 µM (inactive) | > 100 µM (inactive) | 51.3 µM (inactive) | 29.6 µM (inactive) | 44 µM (inactive) | > 100 µM (inactive) | 78.3 µM (inactive) | > 100 µM (inactive) |  | > 100 µM (inactive) | > 100 µM (inactive) | > 100 µM (inactive) | > 100 µM | > 100 µM (inactive) | > 100 µM (inactive) | > 100 µM (inactive) | 87.5 µM (inactive) | 37.2 µM (inactive) | > 100 µM (inactive) |
